Source: US5891909A, “Amidinohydrazones as protease inhibitors” (3-Dimensional Pharmaceuticals, Inc., priority 1997, dated 1999)
Counter-ions that a name gives are not always drawn.

biological target: T1, human α-thrombin (Homo sapiens, UniProt P00734); test: Thrombin inhibition, Ki determination (hydrolysis of N-succinyl-Ala-Ala-Pro-Arg-p-nitroanilide); format: biochemical; details: Table 1; pH 7.5, 37° C.; read-out: Thrombin Ki
T1 construct: Human α-thrombin, human factor Xa and human plasmin were obtained from Enzyme Research Laboratories; purchased Enzyme Research Laboratories (South Bend, Ind.)
From the text: All buffer salts were obtained from Sigma Chemical Company (St. Louis, Mo.), and were of the highest purity available. The enzyme substrates, N-benzoyl-Phe-Val-Arg-p-nitroanilide (Sigma B7632), N-benzoyl-Ile-Glu-Gly-Arg-p-nitroanilide hydrochloride (Sigma B2291), N-p-Tosyl-Gly-Pro-Lys-p-nitroanilide (Sigma T6140), N-succinyl-Ala-Ala-Pro-Phe-p-nitroanilide (Sigma S7388) and N-CBZ-Val-Gly-Arg-p-nitroanilide (Sigma C7271) were obtained from Sigma.
Human α-thrombin, human factor Xa and human plasmin were obtained from Enzyme Research Laboratories (South Bend, Ind.). Bovine α-chymotrypsin (Sigma C4129), bovine trypsin (Sigma T8642) and human kidney cell urokinase (Sigma U5004) were obtained from Sigma. Human leukocyte elastase was obtained from Elastin Products (Pacific, Mo.).
All assays are based on the ability of the test compound to inhibit the enzyme catalyzed hydrolysis of a peptide p-nitroanilide substrate. […] The final concentrations for each of the substrates is listed below. In general, substrate concentrations are lower than the experimentally determined value for Km. Test compounds are prepared as a 1.0 mg/ml solution in DMSO. Dilutions are prepared in DMSO yielding 8 final concentrations encompassing a 200 fold concentration range. Enzyme solutions are prepared at the concentrations listed below in assay buffer.
Data corresponding to less than 10% of the total substrate hydrolysis were used in the calculations. The ratio of the velocity (rate of change in absorbance as a function of time) for a sample containing no test compound is divided by the velocity of a sample containing test compound, and is plotted as a function of test compound concentration. The data are fit to a linear regression, and the value of the slope of the line calculated. The inverse of the slope is the experimentally determined Ki value.
Thrombin activity was assessed as the ability to hydrolyze the substrate N-succinyl-Ala-Ala-Pro-Arg-p-nitroanilide.

SMILES | Ki
Cc1cc(OCCC=NNC(=N)N)cc(OS(=O)(=O)c2ccccc2C(F)(F)F)c1 [Example 2, 2-[2-[5-Methyl-3-(2-trifluoromethylphenylsulfonyloxy)phenoxy]ethyl-1-methylene]hydrazinecarboximidamide nitrate] | 8.4 nM
Cc1cc(OCCC=NNC(=N)N)cc(OCc2ccccc2C(F)(F)F)c1 [Example 3, 2-[2-[5-methyl-3-(2-trifluoromethylbenzyloxy)phenoxy]ethyl-1-methylene]hydrazinecarboximidamide nitrate] | 465 nM
COc1cc(CCCC=NNC(=N)N)cc(OS(=O)(=O)c2ccccc2Cl)c1 [Example 4, 2-[3-[3-(2-chlorophenylsulfonyloxy)-5-methoxyphenyl]propyl-1-methylene]hydrazinecarboximidamide hydrochloride] | 1270 nM
CCOC(=O)CCCCCN(c1cc(C)cc(OCCC=NNC(=N)N)c1)S(=O)(=O)c1ccccc1C(F)(F)F [Example 5, 2-[2-[(5-methyl-3-(N-(5-ethoxycarbonylpentyl)-N-(2-trifluoromethylphenylsulfonyl)amino)phenoxy]ethyl-1-methylene]hydrazinecarboximidamide nitrate] | 26.4 nM
Cc1cc(OCCC=NNC(=N)N)cc(OS(=O)(=O)c2cccc(Cl)c2Cl)c1 [Example 6, 2-[2-[3-(2,3-Dichlorophenylsulfonyloxy)-5-methylphenoxy]ethyl-1-methylene]hydrazinecarboximidamide nitrate] | 13.6 nM
Cc1cc(OCCC=NNC(=N)N)cc(OS(=O)(=O)c2cc(Cl)ccc2Cl)c1 [Example 7, 2-[2-[3-(2,5-Dichlorophenylsulfonyloxy)-5-methylphenoxy]ethyl-1-methylene]hydrazinecarboximidamide nitrate] | 14.9 nM
COc1ccccc1S(=O)(=O)Oc1cc(C)cc(OCCC=NNC(=N)N)c1 [Example 8, 2-[2-[3-(2-Methoxyphenylsulfonyloxy)-5-methylphenoxy]ethyl-1-methylene]hydrazinecarboximidamide acetate] | 6.4 nM
COc1ccc(Br)cc1S(=O)(=O)Oc1cc(C)cc(OCCC=NNC(=N)N)c1 [Example 9, 2-[2-[3-(5-Bromo-2-methoxyphenylsulfonyloxy)-5-methylphenoxy]ethyl-1-methylene]hydrazinecarboximidamide nitrate] | 9.4 nM
Cc1cc(OCCC=NNC(=N)N)cc(OS(=O)(=O)c2ccccc2OC(F)(F)F)c1 [Example 10, 2-[2-[5-Methyl-3-(2-trifluoromethoxyphenylsulfonyloxy)phenoxy]ethyl-1-methylene]hydrazinecarboximidamide nitrate] | 17.2 nM
Cc1cc(OCCC=NNC(=N)N)cc(OS(=O)(=O)c2cccc3nsnc23)c1 [Example 11, 2-[2-[3-(Benzo-2,1,3-thiadiazole-4-sulfonyloxy)-5-methylphenoxy]ethyl-1-methylene]hydrazinecarboximidamide nitrate] | 29.6 nM
Cc1cc(OCCC=NNC(=N)N)cc(OS(=O)(=O)c2cccc(C)c2)c1 [Example 12, 2-[2-[5-Methyl-3-(3-methylphenylsulfonyloxy)phenoxy]ethyl-1-methylene]hydrazinecarboximidamide nitrate] | 8.9 nM
Cc1cc(OCCC=NNC(=N)N)cc(OS(=O)(=O)c2ccccc2C#N)c1 [Example 13, 2-[2-[3-(2-Cyanophenylsulfonyloxy)-5-methylphenoxy]ethyl-1-methylene]hydrazinecarboximidamide hydrochloride] | 14 nM
COc1ccc(C)cc1S(=O)(=O)Oc1cc(C)cc(OCCC=NNC(=N)N)c1 [Example 14, 2-[2-[3-(2-Methoxy-5-methylphenylsulfonyloxy)-5-methylphenoxy]ethyl-1-methylene]hydrazinecarboximidamide nitrate] | 47.5 nM
COc1ccc(OC)c(S(=O)(=O)Oc2cc(C)cc(OCCC=NNC(=N)N)c2)c1 [Example 16, 2-[2-[3-(2,5-Dimethoxyphenylsulfonyloxy)-5-methylphenoxy]ethyl-1-methylene]hydrazinecarboximidamide nitrate] | 21.3 nM
Cc1cc(OCCC=NNC(=N)N)cc(OS(=O)(=O)c2cc(C)ccc2C)c1 [Example 17, 2-[2-[3-(2,5-Dimethylphenylsulfonyloxy)-5-methylphenoxy]ethyl-1-methylene]hydrazinecarboximidamide nitrate] | 6.2 nM
COc1ccc(Cl)cc1S(=O)(=O)Oc1cc(C)cc(OCCC=NNC(=N)N)c1 [Example 18, 2-[2-[3-(5-Chloro-2-methoxyphenylsulfonyloxy)-5-methylphenoxy]ethyl-1-methylene]hydrazinecarboximidamide hydrochloride] | 4.7 nM
Cc1cc(OCCC=NNC(=N)N)cc(OS(=O)(=O)c2c(C)nn(C)c2Cl)c1 [Example 20, 2-[2-[3-(5-chloro-1,3-dimethylpyrazole-4-sulfonyloxy)-5-methylphenoxy]ethyl-1-methylene]hydrazinecarboximidamide acetate] | 76.2 nM
Cc1cc(OCCC=NNC(=N)N)cc(OS(=O)(=O)c2cccc(Cl)c2)c1 [Example 21, 2-[2-[3-(3-Chlorophenylsulfonyloxy)-5-methylphenoxy]ethyl-1-methylene]hydrazinecarboximidamide nitrate] | 3.6 nM
Cc1cc(OCCC=NNC(=N)N)cc(OS(=O)(=O)c2cc([N+](=O)[O-])ccc2C)c1 [Example 22, 2-[2-[5-Methyl-3-(2-methyl-5-nitrophenylsulfonyloxy)phenoxy]ethyl-1-methylene]hydrazinecarboximidamide nitrate] | 63.6 nM
COc1ccccc1S(=O)(=O)Oc1cc(C)cc(OCCCC=NNC(=N)N)c1 [Example 23, 2-[3-[3-(2-Methoxyphenylsulfonyloxy)-5-methylphenoxy]propyl-1-methylene]hydrazinecarboximidamide nitrate] | 1670 nM
Cc1cc(OCCC=NNC(=N)N)cc(OS(=O)(=O)c2cc(F)ccc2C)c1 [Example 24, 2-[2-[3-(5-Fluoro-2-methylphenylsulfonyloxy)-5-methylphenoxy]ethyl-1-methylene]hydrazinecarboximidamide nitrate] | 13.5 nM
Cc1cc(OCCC=NNC(=N)N)cc(OS(=O)(=O)c2cccc3ccccc23)c1 [Example 25, 2-[2-[5-Methyl-3-(1-naphthalenylsulfonyloxy)phenoxy]ethyl-1-methylene]hydrazinecarboximidamide nitrate] | 63.2 nM
Cc1cc(OCCC=NNC(=N)N)cc(OS(=O)(=O)c2cc(C(F)(F)F)ccc2Cl)c1 [Example 26, 2-[2-[3-(2-Chloro-5-trifluoromethylphenylsulfonyloxy)-5-methylphenoxy]ethyl-1-methylene]hydrazinecarboximidamide nitrate] | 1540 nM
COc1ccc(Cl)cc1S(=O)(=O)Oc1cc(C)cc(OCCC=NNC(=N)NN)c1 [Example 27, 2-Amino-[2-[2-[3-(5-chloro-2-methoxyphenylsulfonyloxy)-5-methylphenoxy]ethyl-1-methylene]hydrazine]carboximidamine acetate] | 298 nM
COc1ccc(Cl)cc1S(=O)(=O)Oc1cc(C)cc(OCCC=NN(N)C(=N)N)c1 [Example 28, 1-Amino-2-[2-[3-(5-chloro-2-methoxyphenylsulfonyloxy)-5-methylphenoxy]ethyl-1-methylene]hydrazinecarboximidamine acetate] | 186 nM
Cc1cc(OCCC=NNC(=N)N)cc(OS(=O)(=O)c2cc(C)ccc2C#N)c1 [Example 30, 2-[2-[3-(2-Cyano-5-methylphenylsulfonyloxy)-5-methylphenoxy]ethyl-1-methylene]hydrazinecarboximidamide nitrate] | 33.4 nM
Cc1cc(OCCC=NNC(=N)N)cc(N(CCCCc2ccccc2)S(=O)(=O)c2ccccc2C(F)(F)F)c1 [Example 31, 2-[2-[(3-Methyl-5-(N-(4-phenylbutyl)-N-(2-trifluoromethylphenylsulfonyl))amino)phenoxy]ethyl-1-methylene]hydrazinecarboximidamide acetate] | 69.2 nM
Cc1cc(OCCC=NNC(=N)N)cc(OS(=O)(=O)c2cccc3cnccc23)c1 [Example 32, 2-[2-[3-(5-Isoquinolinylsulfonyloxy)-5-methylphenoxy]ethyl-1-methylene]hydrazinecarboximidamide nitrate] | 24.9 nM
Cc1cc(OCCC=NNC(=N)N)cc(OS(=O)(=O)c2cccnc2)c1 [Example 34, 2-[2-[5-methyl-3-(3-pyridinylsulfonyloxy)phenoxy]ethyl-1-methylene]hydrazinecarboximidamide diacetate] | 56 nM
Cc1cc(OCCC=NNC(=N)N)cc(OS(=O)(=O)c2cccc(F)c2)c1 [Example 35, 2-[2-[3-(3-Fluorophenylsulfonyloxy)-5-methylphenoxy]ethyl-1-methylene]hydrazinecarboximidamide nitrate] | 31 nM
